Values joined by “and” are separate entries in the source; they are usually repeats but may differ in a detail not shown here. Equal entries are not always repeated.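 All cell lines were grown in 96-well plates and treated with compound for 48 hours. GI50 = concentration required for 50% inhibition of growth. Definition used: TGI = concentration required for complete inhibition of growth.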
Legend:
Assay in all cases: NCI tumour cell line growth inhibition, 48 h
SK-MEL-28 melanoma = test system: SK-MEL-28 melanoma
DU-145 prostate = test system: DU-145 prostate
OVCAR-4 ovarian = test system: OVCAR-4 ovarian
MDA-MB-435 = test system: MDA-MB-435
SN12C renal = test system: SN12C renal
HCT-15 colon = test system: HCT-15 colon
SNB-75 CNS = test system: SNB-75 CNS
CAKI-1 renal = test system: CAKI-1 renal

Compound	GI50 (SK-MEL-28 melanoma)	TGI (SK-MEL-28 melanoma)	GI50 (DU-145 prostate)	TGI (DU-145 prostate)	GI50 (OVCAR-4 ovarian)	TGI (OVCAR-4 ovarian)	GI50 (MDA-MB-435)	TGI (MDA-MB-435)	GI50 (SN12C renal)	TGI (SN12C renal)	GI50 (HCT-15 colon)	TGI (HCT-15 colon)	GI50 (SNB-75 CNS)	TGI (SNB-75 CNS)	GI50 (CAKI-1 renal)	TGI (CAKI-1 renal)
CC[C@H](Nc1nc(N)nc(C)c1C#N)c1nc2cccc(CN(C)c3ncc(C(=O)NO)cn3)c2c(=O)n1-c1ccccc1	0.604 µM	3.16 µM	1.11 µM	> 16.7 µM	1.01 µM	6.56 µM	0.617 µM	2.26 µM	1.11 µM	6.03 µM	2.11 µM	12 µM	0.244 µM	1.82 µM	2.61 µM	6.56 µM
CCN(CC)c1ccc(/C=C/c2cc(C)c3ccccc3n2)cc1	6.75 µM	> 100 µM	3.43 µM	15.3 µM	8.37 µM	> 100 µM	0.328 µM	1.9 µM	7.27 µM	> 100 µM	2.27 µM	26.4 µM	3.09 µM	9.4 µM	1.93 µM	13.4 µM
CC(C)(O)c1ccc(N2CCN(c3nnc(Cc4ccccc4)c4ccccc34)CC2)nc1	12 µM	24.9 µM	12.1 µM	34.8 µM	3.99 µM	26.3 µM	10 µM	22.8 µM	7.32 µM	33 µM	8.31 µM	28.7 µM	9.74 µM	24.5 µM	11.3 µM	30.9 µM
O=C1c2ccccc2C(=O)N1CC1(C(=O)O)NCCS1(=O)=O (stereo unspecified)	–	> 100 µM	–	–	–	> 100 µM	–	> 100 µM	–	> 100 µM	–	> 100 µM	–	–	–	> 100 µM
CC12CCC(=O)C(O1)C1C(=O)c3cc4ccccc4cc3C(=O)C12 (stereo unspecified)	20.3 µM	74.4 µM	–	–	12.2 µM	41.2 µM	17.7 µM	34 µM	16.5 µM	36.4 µM	17.3 µM	36.8 µM	29.2 µM	> 100 µM	4.94 µM	25.6 µM
COc1ccc2c(c1)CCC1C2CCC2(C)C1CCC2(O)CNC(=O)CCCCC1CCSS1 (stereo unspecified)	64.9 µM	> 100 µM	46.3 µM	> 100 µM	6.92 µM	45.9 µM	7.83 µM	> 100 µM	16.6 µM	> 100 µM	3.56 µM	> 100 µM	–	–	18.1 µM	40.2 µM
Fc1ccc2[nH]cc(Cc3c[nH]c4ccc(F)cc34)c2c1	25.3 µM	76.7 µM	27.8 µM	85.7 µM	32 µM	> 100 µM	7.46 µM	24.9 µM	21.6 µM	51.4 µM	17.5 µM	55.6 µM	29 µM	85.6 µM	12.1 µM	34.3 µM
COc1ccc(C(=O)/C=C/c2ccc(Cl)cc2)cc1S(=O)(=O)Nc1c(N)nc(SC)[nH]c1=O	2.1 µM	4.97 µM	3.58 µM	11.5 µM	4.49 µM	14.9 µM	2.95 µM	10.7 µM	3.45 µM	13.8 µM	3.24 µM	14.9 µM	–	–	3.83 µM	18.6 µM
COc1cccc(OC(=O)c2ccccc2Nc2ccnc(C(F)(F)F)c2)c1	12.7 µM	> 100 µM	–	–	–	–	–	–	5.33 µM	41.2 µM	2.81 µM	12 µM	–	–	2.68 µM	80.2 µM
COc1cc2cc(Oc3ccc(NC(=O)Nc4ccc(Cl)c(C(F)(F)F)c4)cc3)c(C)nc2cc1OCCN1CCCCC1	1.79 µM	3.23 µM	1.53 µM	2.87 µM	1.46 µM	3.29 µM	1.56 µM	2.92 µM	1.67 µM	3.26 µM	1.25 µM	2.59 µM	1.13 µM	2.33 µM	1.31 µM	2.64 µM
O=S(=O)(c1ccc(NC(=S)NCc2cccnc2)cc1)N1CCCCC1	50.4 µM	> 100 µM	6.12 µM	> 100 µM	23 µM	> 100 µM	3.04 µM	> 100 µM	0.21 µM	> 100 µM	13.6 µM	> 100 µM	25.6 µM	> 100 µM	20.4 µM	> 100 µM
Cc1cc(N2CCCCC2)nc(N(CCNc2ccnc3cc(Cl)ccc23)Cc2ccco2)n1	1.83 µM	3.75 µM	2.87 µM	9.2 µM	1.8 µM	4.42 µM	1.8 µM	3.52 µM	1.83 µM	3.56 µM	1.44 µM	3.3 µM	1.88 µM	4.33 µM	–	–
CC1=C(C(=O)OCc2ccccc2)C(c2ccc3c(c2)OCO3)n2c(nc3ccccc32)N1 (stereo unspecified)	> 100 µM	> 100 µM	0.488 µM	> 100 µM	13.3 µM	> 100 µM	0.0842 µM	0.351 µM	–	–	0.36 µM	> 100 µM	0.215 µM	0.801 µM	0.275 µM	> 100 µM
O=C(O)[C@@H]1C2CC([C@@H]1C(=O)O)[C@H](N1C(=O)CCC1=O)[C@@H]2Br (stereo partly specified)	–	> 100 µM	–	> 100 µM	–	> 100 µM	–	> 100 µM	–	> 100 µM	–	> 100 µM	–	> 100 µM	–	–
Cc1ccc(C(=O)Nc2ccc(S(=O)(=O)O)c3cc(S(=O)(=O)O)cc(S(=O)(=O)O)c23)cc1NC(=O)c1cccc(N)c1	–	> 100 µM	–	–	–	> 100 µM	–	–	–	> 100 µM	–	> 100 µM	–	> 100 µM	–	> 100 µM
N#CSc1ncnc2nc[nH]c12	44.4 µM	> 100 µM	0.548 µM	> 38.7 µM	2.37 µM	> 100 µM	3.65 µM	> 100 µM	51.7 µM	> 100 µM	8.82 µM	> 100 µM	7.19 µM	> 100 µM	2.01 µM	30.1 µM
COc1cc2nc(Cl)nc(Nc3cccc(C(=O)/C=C/c4ccccc4)c3)c2cc1OC	5.03 µM	> 100 µM	> 48.8 µM	> 100 µM	5.5 µM	33.3 µM	3.4 µM	28.9 µM	3.98 µM	41.1 µM	2.88 µM	> 100 µM	2.06 µM	8.61 µM	4.17 µM	35.4 µM

Compound	GI50 (SK-MEL-28 melanoma)	TGI (SK-MEL-28 melanoma)	GI50 (DU-145 prostate)	TGI (DU-145 prostate)	GI50 (OVCAR-4 ovarian)	TGI (OVCAR-4 ovarian)	GI50 (MDA-MB-435)	TGI (MDA-MB-435)	GI50 (SN12C renal)	TGI (SN12C renal)	GI50 (HCT-15 colon)	TGI (HCT-15 colon)	GI50 (SNB-75 CNS)	TGI (SNB-75 CNS)	GI50 (CAKI-1 renal)	TGI (CAKI-1 renal)
O=C(Nc1cccc(Cl)c1)Nc1ncc(CCNc2ncnc3ccsc23)s1	3.85 µM and 2.42 µM	17.4 µM and > 10 µM	4.59 µM and 2.74 µM	20.5 µM and > 10 µM	2.1 µM and 2.93 µM	11.9 µM and > 10 µM	1.99 µM and 1.89 µM	14.2 µM and > 10 µM	3.91 µM and 3.82 µM	18.6 µM and > 10 µM	2.99 µM and 1.79 µM	20.4 µM and > 10 µM	1.62 µM and 1.02 µM	19.5 µM and > 10 µM	1.12 µM and 1.34 µM	22.8 µM and > 10 µM
CCN1C(=O)N(CC)C2C1NN=c1s/c(=C3\C(=O)N(C(C)C)c4ccccc43)c(=O)n12 (stereo unspecified)	1.07 µM	> 100 µM	0.377 µM	3.13 µM	1.6 µM	> 100 µM	0.192 µM	0.487 µM	0.616 µM	> 100 µM	0.322 µM	> 100 µM	0.317 µM	20.9 µM	0.423 µM	> 54.4 µM
CCCN(Cc1ccc(F)cc1)c1ccc(CO)c(Cl)c1	13.7 µM	27 µM	13.3 µM	26.5 µM	0.4 µM	7.9 µM	14.6 µM	29 µM	9.42 µM	23.1 µM	5.35 µM	19.8 µM	10.6 µM	22.7 µM	1.47 µM	13.6 µM
Cn1c(=O)c2[nH]c(/N=N/N3CCN(CCO)CC3)nc2n(C)c1=O	–	> 100 µM	–	> 100 µM	–	> 100 µM	–	> 100 µM	–	> 100 µM	–	> 100 µM	–	–	–	> 100 µM
O=C(CCl)c1ccc([N+](=O)[O-])o1	1.61 µM	3.14 µM	2.21 µM	5.01 µM	1.73 µM	3.32 µM	1.89 µM	4.22 µM	2.38 µM	7.27 µM	1.61 µM	3.22 µM	3.06 µM	9.16 µM	1.73 µM	3.24 µM
NC(=O)[C@H]1CCN(c2ncnc(N)c2F)C[C@@H]1N1CCC[C@@H](Nc2cc(Cl)cc(C(F)(F)F)c2)C1=O	18.5 µM	44.3 µM	10.8 µM	> 100 µM	15.6 µM	95.3 µM	14.3 µM	39.5 µM	10.9 µM	> 100 µM	15.1 µM	48.2 µM	12.6 µM	39.1 µM	6.67 µM	89.7 µM
CCn1c(-c2nonc2N)nc2cncc(C(=O)N3CCNCC3)c21	> 25 µM	> 25 µM	> 25 µM	> 25 µM	> 25 µM	> 25 µM	> 25 µM	> 25 µM	> 25 µM	> 25 µM	> 25 µM	> 25 µM	> 25 µM	> 25 µM	> 25 µM	> 25 µM
Nc1nc(/C=C\c2ccc([N+](=O)[O-])o2)nc(N2CCN(c3ccccc3)CC2)n1	14.1 µM	40.5 µM	3.9 µM	41.4 µM	27.2 µM	> 100 µM	3.98 µM	26 µM	11.1 µM	43.9 µM	2.77 µM	11.9 µM	20.9 µM	47 µM	3.5 µM	10.8 µM
Nc1ncnc2c1ccn2C1OC2COP(=O)(O)OC2C1O (stereo unspecified)	–	14.2 µM	–	> 100 µM	–	9.6 µM	–	2.31 µM	–	12.7 µM	–	3.11 µM	–	–	–	–
CC(C)(C(=O)NN)c1ccccc1	–	> 100 µM	–	> 100 µM	–	–	–	> 100 µM	–	> 100 µM	–	> 100 µM	–	> 100 µM	–	> 100 µM
CCCN1C(=O)/C(=c2\sc3n(c2=O)C2C(NN=3)N(CC)C(=O)N2CC)c2ccccc21 (stereo unspecified)	1.18 µM	29.1 µM	0.421 µM	11 µM	0.933 µM	12.8 µM	0.196 µM	0.445 µM	1.26 µM	20.1 µM	0.416 µM	> 52.4 µM	0.199 µM	0.79 µM	0.445 µM	16.1 µM
CC12CCC(=O)C=C1CCC1C2CCC2(C)C(C(=O)Cn3cnc4c(=S)nc[nH]c43)CCC12 (stereo unspecified)	–	> 100 µM	–	66.4 µM	–	55 µM	–	96.4 µM	–	> 100 µM	–	> 100 µM	–	36.8 µM	–	> 100 µM
Cc1ccc2[nH]c(C(=O)NN3C(=O)CSC34CCCCC4C)c(-c3ccccc3)c2c1 (stereo unspecified)	19.9 µM	38.3 µM	18.2 µM	44.1 µM	16.5 µM	34.2 µM	17.9 µM	34.7 µM	17.7 µM	34.2 µM	18 µM	39.1 µM	19.6 µM	38.1 µM	16.1 µM	32.2 µM
COc1cc(Cn2cc3c(c2)-c2oncc2CC3)cc(OC)c1OC	–	–	0.0412 µM	> 100 µM	0.152 µM	> 100 µM	< 0.0107 µM	< 0.0225 µM	0.0435 µM	–	0.0415 µM	> 100 µM	–	–	0.0337 µM	> 42.1 µM
CN(C)CCCNC(=O)c1cc(NC(=O)CCNS(=O)(=O)c2ccc3c(c2)C(=O)c2ccccc2C3=O)cn1C	–	–	–	–	–	–	> 100 µM	> 100 µM	> 100 µM	> 100 µM	–	–	–	–	> 100 µM	> 100 µM
COc1ccc(Cn2nc(-c3cc(OC)c(OC)c(OC)c3)c3c2CCc2cnoc2-3)cc1OC	10.3 µM	> 100 µM	13.2 µM	> 100 µM	4.96 µM	83.9 µM	–	–	5.25 µM	> 100 µM	4.98 µM	> 100 µM	1.39 µM	5.64 µM	–	–
CC1(C)CCC2(C(=O)OC3OC(CO)C(O)C(O)C3O)CC[C@]3(C)C(=CCC4C5(C)CC[C@H](OC6OC(C(=O)O)C(O)C(O)C6O)C(C)(C)C5CCC43C)C2C1 (stereo partly specified)	2.6 µM	12.2 µM	–	–	–	–	2.52 µM	> 50 µM	1.39 µM	3.55 µM	6.73 µM	13.3 µM	–	–	17.2 µM	> 50 µM
